Data published in US11807693B2 (priority 2014, dated 2023).
Read-outs that look alike come from different tables or passages of the source. Starred links: 1 amine or outer side, 2 acyl side, 3 side chain; linkers in the order of their positions; H or OH if unused. Non-standard residues stand in square brackets, D forms with d. Residues, ends and D or L forms follow the SMILES beside them. *: point of attachment. dBip = N[C@H](Cc1ccc(-c2ccccc2)cc1)C(=O)O; Oic = O=C(O)[C@@H]1C[C@@H]2CCCC[C@@H]2N1; Phe(4-Cl) = N[C@@H](Cc1ccc(Cl)cc1)C(=O)O; Phe(4-I) = N[C@@H](Cc1ccc(I)cc1)C(=O)O; γGlu = O=C(O)[C@H](CCC(=O)[*:2])N[*:1]; d(β3hF) = N[C@@H](CC(=O)O)Cc1ccccc1; Igl = N[C@H](C(=O)O)C1Cc2ccccc2C1; NMeR = CN[C@@H](CCCNC(=N)N)C(=O)O; Palmitoyl = CCCCCCCCCCCCCCCC(=O)*; Tridecanoyl = CCCCCCCCCCCCC(=O)*; hArg = N=C(N)NCCCC[C@H](N)C(=O)O; Tic = O=C(O)[C@@H]1Cc2ccccc2CN1; Cha = N[C@@H](CC1CCCCC1)C(=O)O; NMeL = CN[C@@H](CC(C)C)C(=O)O; αMeL = CC(C)C[C@](C)(N)C(=O)O; β3hL = CC(C)C[C@H](N)CC(=O)O; β3hP = O=C(O)C[C@@H]1CCCN1; Pip = O=C(O)[C@@H]1CCCCN1; Nle = CCCC[C@H](N)C(=O)O; Dap = NC[C@H](N)C(=O)O; AEEA = NCCOCCOCC(=O)O; Aib = CC(C)(N)C(=O)O; NPrGly = CCCNCC(=O)O

How the values were obtained:
[1] = molecular target: T1, human APJ receptor (Homo sapiens, UniProt P35414); assay: [35S] GTPγS assay, human APJ receptor; type: biochemical
T1 construct: expressed in transfected cells
T1 sequence (P35414 1-380): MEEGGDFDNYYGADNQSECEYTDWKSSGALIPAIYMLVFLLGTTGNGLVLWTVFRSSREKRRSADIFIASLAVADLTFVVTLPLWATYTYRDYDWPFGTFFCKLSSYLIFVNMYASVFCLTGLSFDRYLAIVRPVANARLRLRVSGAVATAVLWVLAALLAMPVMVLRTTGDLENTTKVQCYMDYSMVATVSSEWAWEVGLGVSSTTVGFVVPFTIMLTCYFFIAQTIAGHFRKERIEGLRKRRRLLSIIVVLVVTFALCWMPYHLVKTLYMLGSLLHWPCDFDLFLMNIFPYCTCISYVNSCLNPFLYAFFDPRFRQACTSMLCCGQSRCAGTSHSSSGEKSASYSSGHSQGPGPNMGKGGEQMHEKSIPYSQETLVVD

[2] = molecular target: T2, rat APJ receptor (Rattus norvegicus, UniProt Q9JHG3); assay: [35S] GTPγS assay, rat APJ receptor; type: biochemical
T2 construct: expressed in transfected cells
T2 sequence (Q9JHG3 1-377): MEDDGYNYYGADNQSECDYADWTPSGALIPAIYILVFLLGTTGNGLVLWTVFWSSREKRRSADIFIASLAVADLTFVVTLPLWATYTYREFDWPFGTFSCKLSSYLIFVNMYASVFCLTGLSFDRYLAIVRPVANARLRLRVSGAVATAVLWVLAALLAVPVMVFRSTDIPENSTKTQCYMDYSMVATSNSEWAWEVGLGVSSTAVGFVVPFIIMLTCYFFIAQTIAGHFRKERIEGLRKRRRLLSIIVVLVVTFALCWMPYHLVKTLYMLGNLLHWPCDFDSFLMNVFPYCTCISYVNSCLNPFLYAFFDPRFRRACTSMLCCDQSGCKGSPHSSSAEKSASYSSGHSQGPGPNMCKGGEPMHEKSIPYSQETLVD
Protocol: The membranes were incubated with modified peptides in the assay buffer. […] Bound [^35S] GTPγS was separated from free radiolabel by filtration. The filter bound radioactivity was determined by liquid scintillation counting.

[3] = rat APJ receptor, read-out: EC50 Rat APJ Receptor

Structure (SMILES) | EC50 ([1]; human APJ receptor) [nM] | EC50 [2, 3] [nM] | EC50 ([1]; Table 16) [nM] | EC50 ([2]; Table 16, read-out: EC50 Rat APJ Receptor) [nM]
CC(=O)N[C@@H](CCCCNC(=N)N)C(=O)N[C@H](CCCNC(=N)N)C(=O)N[C@@H](CCC(N)=O)C(=O)N[C@@H](CCC(=O)O)C(=O)N1CCC[C@H]1C(=O)N[C@H](CCCNC(=N)N)C(=O)N(C)[C@@H](CC(C)C)C(=O)N[C@@H](CO)C(=O)N[C@@H](Cc1c[nH]cn1)C(=O)N[C@@H](CCCCN)C(=O)NCC(=O)N1[C@H](C(=O)N[C@@H](Cc2ccc(I)cc2)C(=O)N2CCC[C@H]2C(=O)N[C@H](Cc2ccc(-c3ccccc3)cc2)C(=O)O)C[C@@H]2CCCC[C@@H]21 [compound 77] (Ac-[hArg][dR]QEP[dR][NMeL]SHKG[Oic][Phe(4-I)]P[dBip]-OH) | 4.92 | 2.85 | – | –
CCCCCCCCCCCCCCCC(=O)N[C@@H](CCC(=O)NCCOCCOCC(=O)NCCOCCOCC(=O)N[C@H](CCC(N)=O)C(=O)N[C@@H](CCCNC(=N)N)C(=O)N1CCC[C@H]1C(=O)N(C)[C@@H](CCCNC(=N)N)C(=O)N[C@@H](CC1CCCCC1)C(=O)N[C@@H](CO)C(=O)N[C@@H](CN)C(=O)N[C@@H](CCCCN)C(=O)NCC(=O)N1[C@H](C(=O)N[C@@H](CCCC)C(=O)N2CCC[C@H]2CC(=O)N[C@@H](CC(=O)O)Cc2ccccc2)C[C@@H]2CCCC[C@@H]21)C(=O)O [compound 616] ({Palmitoyl-γGlu-AEEA-AEEA}-[dQ]RP[NMeR][Cha]S[Dap]KG[Oic][Nle][β3hP][d(β3hF)]-OH) | 2.75 | 17.2 | – | –
CCCCCCCCCCCCC(=O)N[C@@H](CCC(=O)NCCOCCOCC(=O)NCCOCCOCC(=O)N[C@@H](CCC(N)=O)C(=O)N[C@@H](CCCNC(=N)N)C(=O)N1CCC[C@H]1C(=O)N1CCC[C@H]1C(=O)N[C@@H](CC(C)C)C(=O)N[C@@H](CO)C(=O)N[C@@H](Cc1c[nH]cn1)C(=O)N[C@@H](CCCCN)C(=O)NCC(=O)N1CCC[C@H]1C(=O)N[C@@H](CCCC)C(=O)N1CCC[C@H]1C(=O)N[C@@H](Cc1ccc(Cl)cc1)C(=O)O)C(=O)O [compound 427] ({Tridecanoyl-γGlu-AEEA-AEEA}-QRPPLSHKGP[Nle]P[Phe(4-Cl)]-OH) | – | – | 0.171 | 0.313
CCCCCCCCCCCCC(=O)N[C@@H](CCC(=O)NCCOCCOCC(=O)NCCOCCOCC(=O)N[C@@H](CCCCNC(=N)N)C(=O)N[C@H](CCCNC(=N)N)C(=O)N[C@@H](CCC(N)=O)C(=O)N[C@@H](CCCCNC(=N)N)C(=O)N1CCC[C@H]1C(=O)N[C@@H](CCCC)C(=O)N(C)[C@@H](CC(C)C)C(=O)N[C@@H](C)C(=O)N[C@@H](C)C(=O)N[C@@H](CCCCN)C(=O)NCC(=O)N1[C@H](C(=O)N[C@@H](Cc2ccc(I)cc2)C(=O)N2CCC[C@H]2C(=O)N[C@H](Cc2ccc(-c3ccccc3)cc2)C(=O)O)C[C@@H]2CCCC[C@@H]21)C(=O)O [compound 329] ({Tridecanoyl-γGlu-AEEA-AEEA}-[hArg][dR]Q[hArg]P[Nle][NMeL]AAKG[Oic][Phe(4-I)]P[dBip]-OH) | 37.6 | 36.2 | – | –
CCCCCCCCCCCCC(=O)N[C@@H](CCC(=O)NCCOCCOCC(=O)NCCOCCOCC(=O)N[C@H](CC(=O)N[C@@H](CCCNC(=N)N)C(=O)N1CCC[C@H]1C(=O)N(C)[C@@H](CCCNC(=N)N)C(=O)N[C@@H](CC(C)C)C(=O)N[C@@H](CO)C(=O)N[C@@H](Cc1c[nH]cn1)C(=O)N[C@@H](CCCCN)C(=O)NCC(=O)N1CCC[C@H]1C(=O)N[C@@H](CCCC)C(=O)N1CCC[C@H]1C(=O)N[C@@H](Cc1ccc(Cl)cc1)C(=O)O)CC(C)C)C(=O)O [compound 421] ({Tridecanoyl-γGlu-AEEA-AEEA}-[β3hL]RP[NMeR]LSHKGP[Nle]P[Phe(4-Cl)]-OH) | 0.0934 | 0.286 | – | –
CC(=O)N[C@@H](CCCCNC(=N)N)C(=O)N[C@H](CCCNC(=N)N)C(=O)N[C@@H](CCC(N)=O)C(=O)N[C@@H](CCCCNC(=N)N)C(=O)N1CCC[C@H]1C(=O)N[C@H](CCCNC(=N)N)C(=O)N(C)[C@@H](CC(C)C)C(=O)N[C@@H](CO)C(=O)N[C@@H](Cc1c[nH]cn1)C(=O)N[C@@H](CCCCN)C(=O)NCC(=O)N[C@@H](CCC(=O)O)C(=O)N[C@@H](Cc1ccc(I)cc1)C(=O)N1CCC[C@H]1C(=O)N[C@H](Cc1ccc(-c2ccccc2)cc1)C(=O)O [compound 85] (Ac-[hArg][dR]Q[hArg]P[dR][NMeL]SHKGE[Phe(4-I)]P[dBip]-OH) | > 4170 | > 4170 | – | –
CCCCCCCCCCCCC(=O)N[C@@H](CCC(=O)NCCOCCOCC(=O)NCCOCCOCC(=O)N[C@@H](CCCCNC(=N)N)C(=O)N[C@H](CCCNC(=N)N)C(=O)N[C@@H](CCC(N)=O)C(=O)N[C@@H](CCCCNC(=N)N)C(=O)N1CCC[C@H]1C(=O)N[C@@H](CCCCN)C(=O)N(C)[C@@H](CC(C)C)C(=O)N[C@@H](CO)C(=O)N[C@@H](Cc1c[nH]cn1)C(=O)N[C@@H](CCCC)C(=O)NCC(=O)N1[C@H](C(=O)N[C@@H](Cc2ccc(I)cc2)C(=O)N2CCC[C@H]2C(=O)N[C@H](Cc2ccc(-c3ccccc3)cc2)C(=O)O)C[C@@H]2CCCC[C@@H]21)C(=O)O [compound 313] ({Tridecanoyl-γGlu-AEEA-AEEA}-[hArg][dR]Q[hArg]PK[NMeL]SH[Nle]G[Oic][Phe(4-I)]P[dBip]-OH) | 14.7 | 10.4 | – | –
CCCCCCCCCCCCCCCC(=O)N[C@@H](CCC(=O)NCCOCCOCC(=O)NCCOCCOCC(=O)N[C@H](CCC(N)=O)C(=O)N[C@@H](CCCNC(=N)N)C(=O)N1CCC[C@H]1C(=O)N(C)[C@@H](CCCNC(=N)N)C(=O)N[C@@](C)(CC(C)C)C(=O)N[C@@H](CO)C(=O)N[C@@H](CN)C(=O)N[C@@H](CCCCN)C(=O)NCC(=O)N1[C@H](C(=O)N[C@@H](CCCC)C(=O)N2CCC[C@H]2CC(=O)N[C@@H](Cc2ccc(Cl)cc2)C(=O)O)C[C@@H]2CCCC[C@@H]21)C(=O)O [compound 630] ({Palmitoyl-γGlu-AEEA-AEEA}-[dQ]RP[NMeR][αMeL]S[Dap]KG[Oic][Nle][β3hP][Phe(4-Cl)]-OH) | 0.203 | 0.486 | – | –
CCCCCCCCCCCCCCCC(=O)N[C@@H](CCC(=O)NCCOCCOCC(=O)NCCOCCOCC(=O)N[C@H](CCC(N)=O)C(=O)N[C@@H](CCCNC(=N)N)C(=O)N1CCC[C@H]1C(=O)N(C)[C@@H](CCCNC(=N)N)C(=O)N[C@@H](CC1CCCCC1)C(=O)N(CCC)CC(=O)N[C@@H](Cc1c[nH]cn1)C(=O)N[C@@H](CCCCN)C(=O)NCC(=O)N1CCCC[C@H]1C(=O)N[C@@H](CCCC)C(=O)NC(C)(C)C(=O)N[C@@H](Cc1ccc(Cl)cc1)C(=O)O)C(=O)O [compound 643] ({Palmitoyl-γGlu-AEEA-AEEA}-[dQ]RP[NMeR][Cha][NPrGly]HKG[Pip][Nle][Aib][Phe(4-Cl)]-OH) | 0.463 | 3.79 | – | –
CC(C)C[C@@H](C(=O)N[C@@H](CO)C(=O)N[C@@H](Cc1c[nH]cn1)C(=O)N[C@@H](CCCCN)C(=O)NCC(=O)N1[C@H](C(=O)N[C@@H](Cc2ccc(I)cc2)C(=O)N2CCC[C@H]2C(=O)N[C@H](Cc2ccc(-c3ccccc3)cc2)C(=O)O)C[C@@H]2CCCC[C@@H]21)N(C)C(=O)[C@@H](CCCNC(=N)N)NC(=O)[C@@H]1CCCN1C(=O)[C@H](CCCCNC(=N)N)NC(=O)[C@H](CCC(N)=O)NC(=O)[C@@H](CCCNC(=N)N)NC(=O)[C@H](CCCCNC(=N)N)NC(=O)COCCOCCNC(=O)COCCOCCNC(=O)CC[C@H](NC(=O)CCCCCCCCC(=O)O)C(=O)O [compound 289] | 0.914 | 1.3 | – | –
CCCCCCCCCCCCCCCC(=O)N[C@@H](CCC(=O)NCCOCCOCC(=O)NCCOCCOCC(=O)N[C@H](CCC(N)=O)C(=O)N[C@@H](CCCNC(=N)N)C(=O)N1CCC[C@H]1C(=O)N(C)[C@@H](CCCNC(=N)N)C(=O)N[C@@H](CC1CCCCC1)C(=O)N[C@@H](CO)C(=O)N[C@@H](Cc1c[nH]cn1)C(=O)N[C@@H](CCCCN)C(=O)NCC(=O)N1CCCC[C@H]1C(=O)N[C@@H](CCCC)C(=O)N1CCC[C@H]1C(=O)N1Cc2ccccc2C[C@H]1C(=O)O)C(=O)O [compound 598] ({Palmitoyl-γGlu-AEEA-AEEA}-[dQ]RP[NMeR][Cha]SHKG[Pip][Nle]P[Tic]-OH) | 0.463 | 2.85 | – | –
CCCCCCCCCCCCCCCC(=O)N[C@@H](CCC(=O)NCCOCCOCC(=O)NCCOCCOCC(=O)N[C@H](CCC(N)=O)C(=O)N[C@@H](CCCNC(=N)N)C(=O)N1CCC[C@H]1C(=O)N(C)[C@@H](CCCNC(=N)N)C(=O)N[C@@H](CC1CCCCC1)C(=O)N[C@@H](CO)C(=O)N[C@@H](Cc1c[nH]cn1)C(=O)N[C@H](C(=O)NCC(=O)N1[C@H](C(=O)N[C@@H](CCCC)C(=O)N2CCC[C@H]2CC(=O)N[C@@H](CC(=O)O)Cc2ccccc2)C[C@@H]2CCCC[C@@H]21)C1Cc2ccccc2C1)C(=O)O [compound 625] ({Palmitoyl-γGlu-AEEA-AEEA}-[dQ]RP[NMeR][Cha]SH[Igl]G[Oic][Nle][β3hP][d(β3hF)]-OH) | 11.1 | 20.1 | – | –
